Results from patent US9376423B2, “PKC-epsilon inhibitors” (The Regents of the University of California, priority 2010, dated 2016).
Where two headings read alike, the source gives them in different places.

How the values were obtained:
Type in all cases: biochemical
PKCε [1] = biological target: T1, PKCε (Homo sapiens, UniProt Q02156); experiment: FRET based LANCE Ultra kinase assay
T1 sequence (Q02156 1-737): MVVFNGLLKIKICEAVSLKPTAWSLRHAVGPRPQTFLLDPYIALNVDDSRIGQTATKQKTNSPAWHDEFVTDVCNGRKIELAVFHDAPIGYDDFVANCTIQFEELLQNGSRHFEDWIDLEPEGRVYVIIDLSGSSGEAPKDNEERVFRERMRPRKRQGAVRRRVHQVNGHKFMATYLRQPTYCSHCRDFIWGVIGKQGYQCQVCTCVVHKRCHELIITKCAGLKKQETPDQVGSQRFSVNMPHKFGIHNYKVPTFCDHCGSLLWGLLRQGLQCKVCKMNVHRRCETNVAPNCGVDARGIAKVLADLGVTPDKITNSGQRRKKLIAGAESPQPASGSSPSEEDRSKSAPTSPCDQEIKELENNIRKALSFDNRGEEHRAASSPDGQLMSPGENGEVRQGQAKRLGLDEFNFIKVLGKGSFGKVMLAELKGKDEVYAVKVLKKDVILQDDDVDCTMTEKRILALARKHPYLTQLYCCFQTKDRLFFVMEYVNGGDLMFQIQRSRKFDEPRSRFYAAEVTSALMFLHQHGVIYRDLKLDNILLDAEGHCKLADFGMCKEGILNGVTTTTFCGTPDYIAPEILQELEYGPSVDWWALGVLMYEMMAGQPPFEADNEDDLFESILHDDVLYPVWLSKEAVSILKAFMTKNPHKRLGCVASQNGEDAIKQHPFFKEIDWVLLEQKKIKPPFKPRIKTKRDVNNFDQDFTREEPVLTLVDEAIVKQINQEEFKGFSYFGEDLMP
Experimental: Certain compounds of this invention were tested in the captioned assay.

PKCε [2] = biological target: T1, PKCε; experiment: Primary PKCε phosphotransferase assay; design: FLAG; made in house; host or cells: COS-7
Experimental: The assay mixture can contain 2 ng FLAG-tagged human PKCε expressed and purified from COS-7 cells in 25 μl kinase buffer containing 20 mM Tris-HCl, pH 7.4, 0.25 mM EGTA, 0.1 mg/ml BSA, 0.72% TritonX-100, 10 mM MgCl2, 0.48 μg/μl L-α-phosphatidylserine (PS) and 0.107 μg/μl sn-1,2-dioleoylglecerol (DG) (Avanti Polar Lipids, Alabaster, Ala., USA), 2 μM K(Biotin)-[…], 2.5 μM ATP and 0.05 μCi [^32γ-P]ATP. After incubation at 27° C. for 90 min, the reaction is terminated by adding 12.5 μl of 7.5 M of guanidine hydrochloride. Eight microliters of reaction mixture is spotted onto a pre-cut streptavidin-coated SAM Biotin Capture membrane. […] The membrane is then air dried at room temperature for 60 min and radioactivity remaining on the membrane can be measured by liquid scintillation counting. Specific PKCε activity can then be calculated as the difference between cpms detected in the presence and absence of lipids (PS and DG). Maximal PKCε activity (positive control) can be detected in reactions lacking an inhibitor. Complete inhibition (negative control) can be measured in the presence of the general PKC inhibitor 5 μM bisindolylmaleimide I. The normalized percent inhibition (NPI) can be calculated at each concentration of inhibitor by the formula: […]
IC50 values can be calculated from normalized dose-response curves by nonlinear regression analysis. […]

PKCγ = biological target: T2, PKCγ (Homo sapiens, UniProt P05129); experiment: Inhibition of conventional PKCγ (Example 4); details: 10 μM inhibitor; n = 3; read-out: Percent inhibition of PKC activity, PKCγ
T2 construct: purchased Invitrogen (Carlsbad, Calif., USA)
Source text: (§1) Compound selectivity for inhibiting PKCε and not other PKC isozymes or ROCK1 can be determined according to the following assay. Specificity counter screens can be performed against one member of each subclass of PKCs (conventional, novel and atypical).
(§2) For example, to measure inhibition of conventional PKCγ, novel PKCδ, and atypical PKCζ, the same kinase assay disclosed above for PKCε can be used with recombinant human PKCγ, PKCδ, or PKCζ purchased from Invitrogen (Carlsbad, Calif., USA) in place of PKCε, with 0.4 mM CaCl2 assay buffer for PKCγ.

PKCδ = biological target: T3, PKCδ (Homo sapiens, UniProt Q05655); experiment: Inhibition of novel PKCδ (Example 4); details: n = 3; for inhibition at 10 µM: 10 μM inhibitor, read-out: Percent inhibition of PKC activity, PKCδ; for IC50: ± SE, read-out: Log IC50 (M) PKCδ (converted)
T3 construct: purchased Invitrogen (Carlsbad, Calif., USA)
Source text: as §1, §2

PKCθ = biological target: T4, PKCθ (Homo sapiens, UniProt Q04759); experiment: Inhibition of novel PKCθ (Example 4); details: n = 3; for inhibition at 10 µM: 10 μM inhibitor, read-out: Percent inhibition of PKC activity, PKCθ; for IC50: ± SE, read-out: Log IC50 (M) PKCθ (converted)
T4 construct: purchased Invitrogen P2996
Source text: Inhibition of PKC theta activity can be measured using the same primary phosphotransferase assay for PKCε except one substitutes recombinant human PKC theta purchased from Invitrogen for PKCε. PKC theta can also be assayed with a fluorescence polarization (FP) assay using the commercially available Protein Kinase C Assay Kit, Red, from Invitrogen (Product ID No P2941), essentially in accordance with the protocol supplied by the manufacturer. The substrate used is […] (MW 1561), which can be obtained from Invitrogen (Product ID No P2760). The isozyme PKC theta can be obtained from Invitrogen (Product ID No P2996).

PKCζ = biological target: T5, PKCζ (Homo sapiens, UniProt Q05513); experiment: Inhibition of atypical PKCζ (Example 4); details: for activity against atypical PKCζ: 10 μM; for inhibition at 10 µM: 10 μM inhibitor, n = 3, read-out: Percent inhibition of PKC activity, PKCζ
T5 construct: purchased Invitrogen (Carlsbad, Calif., USA)
T5 sequence (Q05513 1-592): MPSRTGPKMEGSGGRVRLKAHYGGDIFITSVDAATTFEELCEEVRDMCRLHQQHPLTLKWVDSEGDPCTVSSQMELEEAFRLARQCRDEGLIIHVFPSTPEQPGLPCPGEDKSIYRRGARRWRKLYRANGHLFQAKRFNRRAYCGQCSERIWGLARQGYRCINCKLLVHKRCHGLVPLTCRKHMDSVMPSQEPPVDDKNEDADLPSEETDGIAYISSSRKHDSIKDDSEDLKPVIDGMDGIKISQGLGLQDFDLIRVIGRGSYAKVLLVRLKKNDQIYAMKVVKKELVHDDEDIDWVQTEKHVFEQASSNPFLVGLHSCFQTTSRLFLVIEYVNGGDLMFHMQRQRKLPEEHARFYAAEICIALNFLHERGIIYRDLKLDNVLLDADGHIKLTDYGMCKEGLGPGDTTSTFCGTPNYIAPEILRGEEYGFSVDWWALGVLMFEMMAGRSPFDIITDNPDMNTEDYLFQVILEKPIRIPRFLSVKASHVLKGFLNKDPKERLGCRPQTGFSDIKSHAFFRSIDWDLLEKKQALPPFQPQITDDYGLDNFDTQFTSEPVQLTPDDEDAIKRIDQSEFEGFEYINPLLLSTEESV
Source text: as §1, §2

PKCε [3] = biological target: T1, PKCε; experiment: Inhibition of PKCε (Example 4); details: for IC50: ± SE, read-out: Log IC50 (M) PKCε (converted)
[4] = selection criterion for Example 4, read-out: Ki for PKCε

T3 sequence (Q05655 whole entry): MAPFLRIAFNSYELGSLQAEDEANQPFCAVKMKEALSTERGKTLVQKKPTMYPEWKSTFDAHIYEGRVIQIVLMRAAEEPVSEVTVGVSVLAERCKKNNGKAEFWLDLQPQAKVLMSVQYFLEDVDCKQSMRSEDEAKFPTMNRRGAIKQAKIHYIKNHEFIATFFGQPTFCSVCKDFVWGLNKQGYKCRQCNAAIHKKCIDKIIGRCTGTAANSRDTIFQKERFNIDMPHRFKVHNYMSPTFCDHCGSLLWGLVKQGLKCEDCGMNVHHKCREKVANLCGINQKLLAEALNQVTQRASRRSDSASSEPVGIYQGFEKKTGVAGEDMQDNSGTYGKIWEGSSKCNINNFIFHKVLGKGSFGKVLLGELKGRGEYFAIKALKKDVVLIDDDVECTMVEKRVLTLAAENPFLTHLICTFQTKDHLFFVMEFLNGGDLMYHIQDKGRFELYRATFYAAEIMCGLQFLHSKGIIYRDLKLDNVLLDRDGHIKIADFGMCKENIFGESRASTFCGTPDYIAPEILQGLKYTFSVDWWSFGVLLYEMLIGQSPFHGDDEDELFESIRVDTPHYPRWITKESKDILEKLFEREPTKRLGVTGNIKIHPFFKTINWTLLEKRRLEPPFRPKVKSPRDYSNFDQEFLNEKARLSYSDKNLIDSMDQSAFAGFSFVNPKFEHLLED
T4 sequence (Q04759 whole entry): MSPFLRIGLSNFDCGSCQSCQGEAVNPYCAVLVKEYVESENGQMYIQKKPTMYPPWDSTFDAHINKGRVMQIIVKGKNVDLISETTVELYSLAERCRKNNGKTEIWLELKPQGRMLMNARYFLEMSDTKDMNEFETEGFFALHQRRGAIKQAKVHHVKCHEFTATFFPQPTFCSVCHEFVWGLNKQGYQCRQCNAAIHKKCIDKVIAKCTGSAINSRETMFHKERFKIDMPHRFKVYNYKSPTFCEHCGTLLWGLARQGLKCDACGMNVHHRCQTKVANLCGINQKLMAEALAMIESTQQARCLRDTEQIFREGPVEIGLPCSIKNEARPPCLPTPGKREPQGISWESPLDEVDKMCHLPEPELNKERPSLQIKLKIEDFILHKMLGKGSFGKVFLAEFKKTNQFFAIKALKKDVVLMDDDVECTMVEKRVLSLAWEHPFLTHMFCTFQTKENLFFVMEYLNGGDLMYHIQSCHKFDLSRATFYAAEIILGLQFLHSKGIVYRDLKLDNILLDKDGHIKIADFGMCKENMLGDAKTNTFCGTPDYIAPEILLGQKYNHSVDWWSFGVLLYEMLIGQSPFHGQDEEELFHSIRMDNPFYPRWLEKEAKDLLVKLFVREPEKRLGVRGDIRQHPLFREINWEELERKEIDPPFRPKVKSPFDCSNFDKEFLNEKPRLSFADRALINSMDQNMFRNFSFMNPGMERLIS

NC(CNC(=O)C1(c2ccc(F)cc2Cl)CCCC1)[C@H]1CC[C@H](C(=O)Nc2ccncc2)CC1 (stereo partly shown) [Compound 4]
IC50 (PKCε [1]; read-out: Log IC50 (converted)): 121 nM

CC(C)(C(=O)NCC(N)[C@H]1CC[C@H](C(=O)Nc2ccncc2)CC1)c1cccs1 (stereo partly shown) [Compound 7]
IC50 (PKCε [1]; read-out: Log IC50 (converted)): 280 nM

NC(CC(=O)NCC1(c2ccc(Cl)cc2)CC1)[C@H]1CC[C@H](C(=O)Nc2ccncc2)CC1 (relative stereo) [Compound 2, trans-4-[1-Amino-2-[[[1-(4-chlorophenyl)cyclopropyl]methylamino]carbonyl]ethyl]-N-4-pyridinyl-cyclohexylcarboxamide]
IC50 (PKCε [1]): 3240 nM | IC50 (PKCε [2]): 1690 nM

CC(C)(C(=O)NCC(N)[C@H]1CC[C@H](C(=O)Nc2ccncc2)CC1)c1ccc(Cl)cc1.Cl (stereo partly shown) [Compound 9]
IC50 (PKCε [1]; read-out: Log IC50 (converted)): 40 nM | inhibition at 10 µM (PKCγ): 30 ± 3.3% | inhibition at 10 µM (PKCδ): 98.9 ± 0.6% | Ki (PKCδ): 66.5 nM | IC50 (PKCδ): 2.69e-07 M | inhibition at 10 µM (PKCθ): 99.6 ± 1.3% | Ki (PKCθ): 67 nM | IC50 (PKCθ): 2.75e-07 M | activity against atypical PKCζ (PKCζ): almost no activity | inhibition at 10 µM (PKCζ): 8.9 ± 1.8% | Ki (PKCε [3]; n = 3, read-out: Ki (nM) PKCε): 9.3 nM | Ki (PKCε [3]; [4]): < 20 nM | IC50 (PKCε [3]; n = 3): 3.8e-08 M

NC(C(=O)NC1COc2ccccc21)[C@H]1CC[C@H](C(=O)Nc2ccncc2)CC1 (stereo partly shown) [Compound 10]
IC50 (PKCε [1]; read-out: Log IC50 (converted)): 2020 nM

NC(CNC(=O)C1(c2ccc(F)c(F)c2)CC1)[C@H]1CC[C@H](C(=O)Nc2ccncc2)CC1 (stereo partly shown) [Compound 6]
IC50 (PKCε [1]; read-out: IC50): 52.2 nM

Cl.NC(CNC(=O)C1(c2ccc(F)cc2)CCCC1)[C@H]1CC[C@H](C(=O)Nc2ccncc2)CC1 (stereo partly shown) [Compound 5]
IC50 (PKCε [1]; read-out: IC50): 42.6 nM | IC50 (PKCε [1]; read-out: Log IC50 (converted)): 42.7 nM | inhibition at 10 µM (PKCγ): 17 ± 1.3% | inhibition at 10 µM (PKCδ): 96.4 ± 1% | Ki (PKCδ): 125 nM | IC50 (PKCδ): 5.25e-07 M | inhibition at 10 µM (PKCθ): 94.4 ± 1% | Ki (PKCθ): 86.9 nM | IC50 (PKCθ): 3.63e-07 M | activity against atypical PKCζ (PKCζ): almost no activity | inhibition at 10 µM (PKCζ): 6.3 ± 2.1% | Ki (PKCε [3]; n = 3, read-out: Ki (nM) PKCε): 12.8 nM | Ki (PKCε [3]; [4]): < 20 nM | IC50 (PKCε [3]; n = 3): 4.27e-08 M

NC(C(=O)NCc1ccc(F)cc1)[C@H]1CC[C@H](C(=O)Nc2ccncc2)CC1 (stereo partly shown) [Compound 12]
IC50 (PKCε [1]; read-out: Log IC50 (converted)): 2370 nM

NC(C(=O)NC1CCCc2ccccc21)[C@H]1CC[C@H](C(=O)Nc2ccncc2)CC1 (stereo partly shown) [Compound 11]
IC50 (PKCε [1]; read-out: Log IC50 (converted)): 3090 nM

NC(CNC(=O)C1CCc2cc(Cl)ccc21)[C@H]1CC[C@H](C(=O)Nc2ccncc2)CC1 (stereo partly shown) [Compound 8]
IC50 (PKCε [1]; read-out: Log IC50 (converted)): 359 nM

NC(CNC(=O)C1(c2ccc(F)cc2)CC1)[C@H]1CC[C@H](C(=O)Nc2ccncc2)CC1 (stereo partly shown) [Compound 3]
IC50 (PKCε [1]; read-out: Log IC50 (converted)): 146 nM
